Entries after “also recorded” stand apart in the source; their conditions may differ. Where a name gives a salt, the structure may show the parent alone.
Key:
MucilAir™-HF tissues [1] = experiment: Mucin-5AC (Muc5AC) immunohistochemistry, goblet cells, MucilAir-HF model; assay type: cell-based, human; details: 30 min/day exposure, average ± standard deviation
Experimental: (§1) Tissues were handled as recommended by manufacturer’s instruction.
The presence of goblet cells was assessed through immunohistochemistry analysis for mucin-5AC protein (Muc5AC) detection. IL-13 and cytomix were used as positive controls (see item 2.5.2 for additional details). On last day of experiment (day 12), cultures (n = 3 tissues/group) were rinsed in PBS and fixed by immersion in 4% formaldehyde for 20 min. Fixed tissues were embedded into paraffin, sectioned, and processed for staining on paraffin sections. The immunostaining of the sections was performed with the Benchmark automated platform (Ventana-Roche, Hoffmann-La Roche Ltd, Basel, Switzerland) and the Autostainer Link 48 (Agilent, Santa Clara, CA. United States) with the detection kit Ultraview DAB (DAB chromogeny, Hoffmann-La Roche Ltd). Sections were pre-treated using heat mediated antigen retrieval with sodium citrate buffer, pH 6, for 20 min. The section was then incubated with recombinant anti-mucin 5AC antibody (ab3649, Abcam) for 1 h at room temperature, followed by biotinylated secondary antibody (Dako) and HRP detection (HRP conjugated ABC system, Vector Laboratories), according to manufacturer’s instruction. The section was then counterstained with hematoxylin (Sigma-Aldrich) and mounted with DPX, a synthetic non-aqueous mounting medium for microscopy. Digital images of the slides were then acquired, and quantitative image analysis performed using Image Pro Plus 6.2 (Media Cybernetics) to quantify the goblet cells on a section. The whole images of stained sections were scanned, and an average 15 images/section were analysed. The results are the ratio between the mucin 5AC stained area and the total surface area of the epithelium on the section.

MucilAir™-HF tissues [2] = experiment: Cytokine and chemokine measurements (Luminex), MucilAir-HF model; assay type: cell-based, human; details: for Cytokines/chemokines modulated (in words): MucilAir-HF; for MinPoD: MucilAir™-HF model, biomarker IL-1ra
Experimental: as §1
Basolateral medium samples of the tissue cultures were collected and stored at −80°C until analysis. The following cytokines/chemokines were quantified using customized Human Luminex® Discovery Assay kits (R&D Systems): chemokine (C-C motif) ligand (CCL) 2, CCL7, CCL26, C-X-C motif chemokine ligand (CXCL) 10, CXCL11, intercellular adhesion molecule-1 (ICAM-1), IL-1α, IL-6, IL-8, matrix metalloproteinase (MMP)-1, MMP-2, MMP-3, MMP-7, MMP-9, osteopontin, interferon (IFN)-γ, IL-1 receptor antagonist (IL-1Ra), urokinase-type plasminogen activator receptor (uPAR), tumour necrosis factor (TNF)-α, urokinase (uPA), serpin E1, tissue inhibitor of metalloproteinase 1 (TIMP-1), and TGF-β1. Samples were measured in technical triplicates according to the manufacturer’s recommendation using a Luminex Bio-Plex® 200 RUO System ([…]).

MucilAir™-HF tissues [3] = tested on: MucilAir™-HF tissues
Experimental: (§4) The MucilAir™-HF system (EP11MD) and ready-to-use chemically-defined, serum-free culture medium (EP04AM) were obtained from Epithelix Sàrl (Geneva, Switzerland). Tissues were handled as recommended by manufacturer’s instruction. […] After differentiation for 42 up to 81 days at the air-liquid interface (ALI) under standard culture conditions (37°C ± 1°C in a humidified atmosphere of 5% ± 1% CO2 in air), tissues were washed 3 days before first exposure and each insert was inspected for beating cilia and mucus production. This washing step (one or twice with PBS) were performed to remove accumulated mucus and cell debris to minimize the risk of interference with the toxicity tests. Over 12-day experimental period, washing steps as well as media changes was performed every 2-3 days.
(§5) For toxicity testing performed over a 12-day experimental period, tissues were daily exposed to 3 different concentrations of each test material for 30 min or 6 h (for detailed information on each material see Table 1). […]
(§6) TEER measurements were performed daily after test item exposure to evaluate tissue barrier function. Tissues were washed, 200 µL of buffered saline solution was added to the apical compartment of MucilAir™-HF cultures, and resistance was measured using an EVOMX volt-ohmmeter with chopstick style probes (World Precision Instruments, Stevenage, UK). […]

MucilAir™-HF tissues [4] = experiment: TEER analysis of tissue barrier integrity, MucilAir-HF model; details: Day 4, biomarker TEER
Experimental: as §4, §5, §6

[5] = tested on: human airway smooth muscle cells; set-up: method as in McKay et al., 2000; details: 1-500 U/mL for 24h; ref McKay et al., 2000; cited from earlier work
[6] = tested on: Beas2B, HFL-1 and H292 cells; set-up: method as in Gerloff et al., 2017; details: 10 ng/mL for 24h; ref Gerloff et al., 2017; cited from earlier work
MucilAir™-HF tissues [7] = tested on: MucilAir™-HF tissues; remark: listed apart in the source
Experimental: as §4
For toxicity testing performed over a 12-day experimental period, tissues were daily exposed to 3 different concentrations of each test material for 30 min or 6 h (for detailed information on each material see Table 1). […] Tissues were exposed by test materials via nebulization, liquid apical application, or liquid basal application. These differences in the exposure type were due to solubility of the test material, route of exposure (inhaled or systemic), or comparison with previous publications. […]

[8] = tested on: human bronchial epithelial cells (BEAS-2B); set-up: method as in Sthijns et al., 2014; details: 3-10 µM, 30-min exposure; ref Sthijns et al., 2014; cited from earlier work
NCI-H292 cells = details: 0.03 µM for 4 h; ref Deshmukh et al., 2005; cited from earlier work
[9] = tested on: NCI-292 and normal human bronchial epithelial cells; set-up: method as in Deshmukh et al., 2005; details: ref Deshmukh et al., 2005; cited from earlier work
EpiAlveolar™ tissues [10] = experiment: Cytokine and chemokine measurements (Luminex), EpiAlveolar model, Laboratory 1; assay type: cell-based, human; details: for MinPoD: EpiAlveolar™ model Laboratory-1
Description: (§2) EpiAlveolar™ system was obtained from MatTek Corporation (Ashland, MA, United States, cat. no. ALV-100-FT-MAC, ALV-100-FT-MAC-PE12). According to the supplier, the tissue systems were derived from primary human alveolar epithelial cells and primary pulmonary fibroblasts, both from a same healthy donor, and pulmonary endothelial cells from another healthy donor, and THP-1 cell line derived macrophages. These tissues were differentiated by the manufacturer prior to shipping to the testing facilities. […] TEER was measured and only systems with confirmed quality of the tight junction barrier (>300 Ω.cm^2) and with approved morphological inspection were used in the experiments.
(§3) Vehicle control groups were also tested in parallel. Except for Doxorubicin (which underwent a 6-day chemical exposure + 6-day without exposure), exposures were conducted daily, on 12 consecutive days with different concentrations, through aerosol, apical or basolateral liquid exposure methods (Table 2). […] Each of the insert holders of the instrument base module was filled with Hanks’ Balanced Salt solution (HBSS) or PBS prior to placing the tissue inserts. Then, each test item solution/suspension was placed into the nebulizer reservoir for aerosol material exposure. The nebulizer was activated until the material solution/suspension was consumed and discharged into the main exposure chamber and allowed to fully gravity deposit out of the Cloud 12 (determined using a QCM). After exposure, the tissues were placed back into their multi-well culture plates containing the same medium, a further aliquot of media was added apically (20 µL for Akemi, 75 µL for all others except LPS) and returned to incubator until next exposure. Media used during the 6- or 12-day experimental period was prepared without Supplement X by MatTek. In medium exposure, the apical or basolateral liquid of each tissue was removed and replaced with each test item medium solution/suspension and returned to the incubator until the next exposure. After the beginning of the exposure cycles, tissues were only re-fed with new culture medium every 3-4 days.
In Laboratory 1, basal media samples collected from the tissues were collected and stored at ≤ −60°C until analysis. For cytokine/chemokine measurements, 17-Plex, duplex and single-plex analyte detection panels were run on the samples using Human Luminex™ Multiplex Immunoassay kits (R&D Systems). The analytes quantified were TNF-α, IL-6, MMP-9, MMP-3, MMP-1, MMP-2, CXCL10, CCL2, IFN-γ, IL-1ra, CCL7, IL-1a, CCL26, CXCL9, VCAM-1, ICAM-1, and CXCL11 in a 17-plex assay; whereas IL-8 and Serpin E1 in a duplex assay and TGF-β1 in a single-plex assay.

EpiAlveolar™ tissues [11] = experiment: Cytokine and chemokine measurements (Luminex), EpiAlveolar model, Laboratory 2; assay type: cell-based, human; details: for MinPoD: EpiAlveolar™ model Laboratory-2
Description: as §2, §3
In Laboratory 2, apical culture media samples of the tissues were collected, stored at −80°C until shipment, in dry ice with temperature monitor control, to Unilever SERS, where the analyses were performed. Upon receipt, samples were again stored in the −80°C until the analysis using Human Luminex® Discovery Assay kits (R&D Systems). The same readouts investigated for MucilAir™-HF tissue samples were quantified in these samples.

EpiAlveolar™ tissues [12] = experiment: High-throughput transcriptomics (RNA-seq, PLIER latent variables), EpiAlveolar model, Laboratory 2; assay type: cell-based, human; details: for MinPoD: Transcriptomics, biomarker 111
EpiAlveolar™ model = experiment: Bioactivity exposure ratio (BER): lowest in vitro PoD of EpiAlveolar readouts / lower respiratory tract exposure estimate or Cmax; set-up: species or system human; details: Plasma
Experimental: (§7) Concentration and time-dependent changes in the bioactivity readout data were analyzed using a nonlinear state space model, based on the work of [Svensson and Schön (2017)]. […] All bioactivity readouts were included in the analysis (where available), i.e., measurements for tissue integrity loss (TEER) and functionality (MCC, CBF, and mucin secretion), cytokine/chemokine secretion, and the transcriptional LV values obtained using PLIER. The datasets were grouped so that a single state space model was used to capture all the responses (across time, concentration, and test material) for a single readout obtained within a particular study (laboratory/tissue model). Data were transformed to the log base 10 scale and normalized using z-scores, so that for a given readout Ytij from a laboratory/tissue model, the corresponding normalized value was given by y^tij=⁡log⁡10(Ytij)−μ)/σ . Here, the indexes i,j,t correspond to the different test materials, concentrations and timepoints, μ and σ are the sample mean and standard deviation of the control readout values obtained for the first timepoint. All measurement were then scaled so that the maximum median value across different replicates was one for all timepoints, readouts and test materials within a given laboratory/tissue model.
The model consists of state variables xti,j , response variables ytij and the concentrations of material c^i,j . The response variables yti,j represent the normalized (see below) readout values at timepoint t for material exposure i,j . The mean of the response variable is given by xti,j , so that yti,j∼xti,j+et , where et represents random fluctuations in the readout values, due to observational noise, which are taken to be normally distributed. Dynamical changes in state values are given by xti,j=fxt−1i,j,cti,j+vt . Here, fxt−1i,j,c^i,j is a non-linear function that represents interactions between different state variables and the perturbation caused by the test material at a given exposure at concentration c^i,j, and vt represents random fluctuations in state dynamics (which are also normally distributed). Following [Svensson and Schön (2017)], the nonlinear terms are based on an approximation to Gaussian processes, which are obtained using a basis function expansion-based approach. Inference of the model parameters was performed in the framework of Bayesian inference, wherein random draws of the posterior distribution were obtained using Sequential Monte Carlo (SMC), see [Svensson and Schön (2017)] and [Chopin and Papaspiliopoulos (2020)]. For each state space model representing a particular laboratory/readout dataset, SMC simulation was run for three chains at 5,000 iterations each, and first 1,000 iterations were discarded from the final posterior samples. The Rhat convergence diagnostic (Rhat < 1.1) was used to ensure the simulations had converged.
The state space model and posterior model parameter samples were then used to construct posterior predictive distributions of the response of each readout to a given test material for a given concentration and timepoint (see Figure 4). The posterior predictive distributions were used to estimate various statistics on the readout responses (median, 95% credible range etc.), PoDs, Concentration Dependency Scores (CDS) and two Effect Scores (increase and decrease). PoDs were defined as the concentration at which the mean response to a test material exceeded the 95% credible range of control for each timepoint (otherwise the mean response remains within the range of control). PoDs distribution for each timepoint, test material and readout, from which different statistical measures (e.g., the median, 95% credible range etc.) were calculated. The CDS was designed to provide confidence metric in whether an effect in the data was truly concentration dependent.

[13] = human, therapeutic dose, infusion of 60 mg/m^2 for 40 min; ref Barpe et al. (2010); cited from earlier work
[14] = cited from earlier work
EpiAlveolar™ tissues [15] = experiment: Histology and immunohistochemistry, EpiAlveolar model, Laboratory 2; details: Laboratory 2, 12-day period
Experimental: To evaluate the quality of EpiAlveolar™ tissues over the 12-day experimental period, histological and immunohistochemistry assessments for detection of pan-cytokeratin, vimentin, aquaporin 5, pro-surfactant C, CD68, caspase-3, and/or αSMA were performed by Laboratories 1 and 2.
Tissues were kept in 10% phosphate buffered formalin at 4°C for up to 48 h. Samples were then fixed in 70% ethanol and two strips of membrane were trimmed from each sample, processed, and paraffin-embedded to be cut at 5 µm thick sections and mounted to glass slides. The slides were then dewaxed in xylene, hydrated using graded industrial methylated spirit (70-100%) and stained with H&E for light microscope analysis.
For immunohistochemistry analysis, tissue sections-containing microscope slides were obtained and processed using a Discovery Ultra Staining System (Roche), according to manufacturer’s instructions, except for anti-CD68 staining that was manually performed. The slides were incubated at 60°C for 8 min and then deparaffinized at 69°C for 24 min. After that, slides were incubated with inhibitor CM or peroxidase blocking solution (for anti-CD68 staining) for 8 min at room temperature. The slides were then incubated at room temperature with the following primary monoclonal antibodies, following manufacturer’s instructions: anti-α smooth muscle actin (αSMA) at 1:500 (Leica Microsystems Ltd), anti-CD68 at 1:3000 for macrophages (11192-T24, Sino Biological), anti-pro-surfactant C protein at 1:1000 (AB3786, Sigma-Aldrich), anti-caspase-3 at 1:10000 (AB4051, Abcam), anti-aquaporin 5 (31661, Invitrogen), anti-pan-cytokeratin for epithelial cells (760-2595, Roche), and anti-vimentin for mesenchymal cells (790-2917, Roche). […]
A board-certified pathologist evaluated the changes (epithelial thinning, separation/detachment areas, necrosis, collagen, and presence of apoptotic cells, myofibroblasts, and type II pneumocytes) using a semi-quantitative scoring system (Table 2).

[16] = day 12, High 1 concentration (third of the tested concentrations)
[17] = day 12, Low concentration (first of the tested concentrations)
[18] = day 12, Medium concentration (second of the tested concentrations)

Experimental for MucilAir™-HF model: as §7
The model consists of state variables xti,j , response variables ytij and the concentrations of material c^i,j . The response variables yti,j represent the normalized (see below) readout values at timepoint t for material exposure i,j . The mean of the response variable is given by xti,j , so that yti,j∼xti,j+et , where et represents random fluctuations in the readout values, due to observational noise, which are taken to be normally distributed. Dynamical changes in state values are given by xti,j=fxt−1i,j,cti,j+vt . […] For each state space model representing a particular laboratory/readout dataset, SMC simulation was run for three chains at 5,000 iterations each, and first 1,000 iterations were discarded from the final posterior samples. […]

Benzalkonium chloride [BAC]
% of Muc5AC area (MucilAir™-HF tissues [1]; [16]): 3.98 ± 1.12%
% of Muc5AC area (MucilAir™-HF tissues [1]; [17]): 5.75 ± 0.93%
% of Muc5AC area (MucilAir™-HF tissues [1]; [18]): 5.37 ± 1.06%
Cytokines/chemokines modulated (in words) (MucilAir™-HF tissues [2]; 30 min/day exposure): increase in CCL7, IL-1α and IL-6; also recorded: downregulation of MMP-7 only
Cytokines/chemokines modulated (in words) (MucilAir™-HF tissues [2]; exposure time/day not given): IL-1ra showed upregulated levels
MinPoD (MucilAir™-HF tissues [2]; Day 8): 1.822 μg/cm2
MinPoD (MucilAir™-HF tissues [2]; Day 12): 1.409 μg/cm2
Tissue barrier integrity (TEER) change (in words) (MucilAir™-HF tissues [3]): trigger changes in tissue barrier integrity
MinPoD (MucilAir™-HF tissues [4]): 2.6 μg/cm2

Recombinant human TNF-α (carrier-free)
% of Muc5AC area (MucilAir™-HF tissues [1]; [16]): 5.21 ± 3.28%
% of Muc5AC area (MucilAir™-HF tissues [1]; [17]): 8.18 ± 1.54%
% of Muc5AC area (MucilAir™-HF tissues [1]; [18]): 9.15 ± 6.07%
Cytokines/chemokines modulated (in words) (MucilAir™-HF tissues [2]; 30 min/day exposure): upregulation of CCL2 and osteopontin
IL-6 production protein and mRNA transcript levels [5]: significant increase of IL-6 production protein and mRNA transcript levels
IL-8 protein levels [6]: increased IL-8 protein levels

Carboxymethylcellulose sodium salt [CMC]
MCC change (in words) (MucilAir™-HF tissues [7]): concentration-dependent reduction in the MCC only on day 1
BER_min (MucilAir™-HF model): 2.393

C=CC=O [Acrolein]
% of Muc5AC area (MucilAir™-HF tissues [1]; [16]): 5.21 ± 2.16%
% of Muc5AC area (MucilAir™-HF tissues [1]; [17]): 3.66 ± 1.21%
% of Muc5AC area (MucilAir™-HF tissues [1]; [18]): 7.40 ± 1.45%
Cytotoxicity (LDH leakage) [8]: concentration-dependent cytotoxicity through LDH leakage increase
MUC5AC mRNA expression (NCI-H292 cells): MUC5AC mRNA expression increase
MMP9 mRNA expression [9]: increase of MMP9 mRNA expression

COc1cccc2c1C(=O)c1c(O)c3c(c(O)c1C2=O)C[C@@](O)(C(=O)CO)C[C@@H]3O[C@H]1C[C@H](N)[C@H](O)[C@H](C)O1 [Doxorubicin, Doxorubicin hydrochloride]
Cytokines/chemokines modulated (in words) (EpiAlveolar™ tissues [10]; EpiAlveolar, Laboratory 1): tendency towards downregulation of the inflammatory and degradation of extracellular matrix/fibrosis responses; also recorded: dual effect with the anti-inflammatory IL-1ra response
MinPoD (EpiAlveolar™ tissues [10]; Day 4, biomarker MMP-3): 0.1566 μg/cm2
MinPoD (EpiAlveolar™ tissues [10]; Day 8, biomarker MMP-3): 0.1333 μg/cm2
MinPoD (EpiAlveolar™ tissues [10]; Day 12, biomarker MMP-9): 0.1298 μg/cm2
Cytokines/chemokines modulated (in words) (EpiAlveolar™ tissues [11]; EpiAlveolar, Laboratory 2): tendency towards downregulation of the inflammatory and degradation of extracellular matrix/fibrosis responses
MinPoD (EpiAlveolar™ tissues [11]; Day 1, biomarker CCL2): 0.2843 μg/cm2
MinPoD (EpiAlveolar™ tissues [11]; Day 4, biomarker CCL2): 0.1115 μg/cm2
MinPoD (EpiAlveolar™ tissues [11]; Day 8, biomarker CCL7): 0.07617 μg/cm2
MinPoD (EpiAlveolar™ tissues [11]; Day 12, biomarker CCL7): 0.06864 μg/cm2
Median change, 171 - INTRAFLAGELLAR_TRANSPORT (EpiAlveolar™ tissues [12]): 0.04
MinPoD (EpiAlveolar™ tissues [12]; Day 1): 0.002879 μg/cm2
MinPoD (EpiAlveolar™ tissues [12]; Day 4): 0.00076 μg/cm2
MinPoD (EpiAlveolar™ tissues [12]; Day 8): 0.0007958 μg/cm2
MinPoD (EpiAlveolar™ tissues [12]; Day 12): 0.000701 μg/cm2
BER_min (EpiAlveolar™ model; Day 1, EpiAlveolar™ model Laboratory-2): 0.2187
BER_min (EpiAlveolar™ model; Day 1, Transcriptomics): 0.002215
BER_min (EpiAlveolar™ model; Day 4, EpiAlveolar™ model Laboratory-1): 0.1204
BER_min (EpiAlveolar™ model; Day 4, EpiAlveolar™ model Laboratory-2): 0.08579
BER_min (EpiAlveolar™ model; Day 4, Transcriptomics): 0.0005847
BER_min (EpiAlveolar™ model; Day 8, EpiAlveolar™ model Laboratory-1): 0.1025
BER_min (EpiAlveolar™ model; Day 8, EpiAlveolar™ model Laboratory-2): 0.05859
BER_min (EpiAlveolar™ model; Day 8, Transcriptomics): 0.0006121
BER_min (EpiAlveolar™ model; Day 12, EpiAlveolar™ model Laboratory-1): 0.09985
BER_min (EpiAlveolar™ model; Day 12, EpiAlveolar™ model Laboratory-2): 0.0528
BER_min (EpiAlveolar™ model; Day 12, Transcriptomics): 0.0005393
Plasma conc [13]: Plasma conc 1.3 μM
Risk ([14]; Scenario Plasma): High
Risk classification ([14]; per benchmark chemical-exposure scenario (product and exposure scenario of the same line), based on historical safety decisions, ref References column of Table 3): High
Histological changes compared to vehicle and control groups (in words) (EpiAlveolar™ tissues [15]): minor increase in epithelial thinning and a minor increase in the numbers of degenerate cells were observed by day 4
